Here are results for 1 substance from patent US20210403864A1, “METHODS AND COMPOSITIONS FOR TREATING ACTIVATED G-ALPHA Q MUTANT CANCERS OR MELANOCYTIC MALIGNANCIES” (Memorial Sloan Kettering Cancer Center, priority 2018, published 2021).

By IC50 is commonly meant the point on the concentration scale where inhibition reaches its midpoint. The low end stands for greater potency in that assay, the high end for weaker potency in that assay.

The target of one experiment is Gαq^Q209L (Homo sapiens, UniProt P50148, Q209L). As to conditions: overexpression systems, literature, cited from earlier work.
Chain of Gαq^Q209L (P50148 whole entry Q209L): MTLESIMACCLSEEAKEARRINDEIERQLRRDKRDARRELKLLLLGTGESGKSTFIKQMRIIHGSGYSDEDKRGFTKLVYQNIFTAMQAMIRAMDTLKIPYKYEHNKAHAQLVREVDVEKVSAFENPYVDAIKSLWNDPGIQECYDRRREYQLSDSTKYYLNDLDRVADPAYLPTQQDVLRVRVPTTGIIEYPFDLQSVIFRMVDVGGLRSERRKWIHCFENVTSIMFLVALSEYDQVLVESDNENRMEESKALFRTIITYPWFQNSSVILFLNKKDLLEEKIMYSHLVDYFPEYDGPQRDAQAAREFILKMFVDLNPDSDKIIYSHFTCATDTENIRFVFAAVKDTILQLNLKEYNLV
For the next experiment, the system named is OMM1.3 cells. The experiment in a line: Cell proliferation dose response, CellTiter-glo 2.0. It is filed as cell-based, human. As to conditions: 5 days, approximate. The protocol:
(§1) Data are expressed as the percentage RLU relative to that observed with vehicle. Error bars, s.e.m. from triplicate samples.
(§2) Cell Culture and in vitro analysis. Mutation dependent melan-a cells were generated by transducing cells with cDNAs in MSCV-PURO (retrovirus) and then selecting cells with puromycin (1 μg/ml) for two days. TPA (Sigma-Aldrich, St. Louis, Mo.) was then withdrawn from cultures. Cells with activating mutations (CYSLTR2^L129Q, GNAQ^G48V/R183Q/Q209L, KRAS^G12V, and BRAF^V600E) continued to proliferate over several passages (>2 weeks) and were then validated with qRT-PCR and immunoblots. Vector and WT controls were unable to maintain proliferation after a couple passages upon TPA withdrawal. All cells were cultured in media containing 10% FBS, L-glutamine ([…]), penicillin (100 U/ml), streptomycin (100 μg/ml). Melan-a cells provided by D. Bennett, St. George's Hospital, University of London (Johnson C P, et al., PLoS One. 12(6):1-17 (2017)), were cultured in RPMI supplemented with 200 nM TPA unless otherwise noted. HEK293T (from ATCC, Manassas, Va.) cells were cultured in DMEM-Q and UVM cells were cultured in RPMI. All cells tested negative for mycoplasma. Cell growth assays and YM dose response curves were assayed using CellTiter-glo 2.0 (Promega, Madison, Wis.) at given time points or after five days of incubation with YM and readout on a Glomax Luminometer (Promega, Madison, Wis.). IC50 values were calculated using Prism 7.0 software. Growth assays were compared to day 1 readings and dose response curves were compared to vehicle. Data shown is representative of at least three independent experiments with at least three technical replicates. Dose-response curves and growth assays were analyzed using GraphPad Prism 7.0 software.

A further experiment has as its system A549 cells (KRAS^G12S). Described as above. Format: cell-based, human. As to conditions: 5 days. How it is done:
as §1, §2

For the next experiment, the system named is Mel285 cells. The experiment is described as above. As to conditions: 5 days, UVM line lacking GNAQ/11 mutations. It is filed as cell-based, human. How it is done:
as §1, §2

Experiment [1] concerns SK-MEL-2 cells (NRAS^Q61R). The description is as above. It is filed as cell-based, human. As to conditions: 5 days. How it is done:
as §1, §2

The subject of a further experiment is Mel202 cells. The experiment is described as above. Format: cell-based, human. As to conditions: 5 days, approximate. How it is done: as §1, §2
A further experiment has as its system Mel290 cells. The description is as above. Format: cell-based, human. As to conditions: 5 days, UVM line lacking GNAQ/11 mutations. The protocol:
as §1, §2

A further experiment has as its system Mel270 cells. The description is as above. Format: cell-based, human. As to conditions: 5 days, approximate. How it is done:
as §1, §2

The test system of experiment [2] is A375 cells (BRAF^V600E cutaneous melanoma). The description is as above. As to conditions: 5 days. It is filed as cell-based, human. How it is done: as §1, §2
Experiment [3] has as its system CYSLTR2^L129Q-expressing melan-a cells. The experiment in a line: TPA-independent cell growth, CellTiter-glo 2.0. Format: cell-based, mouse. As to conditions: 5 days. The protocol:
(§3) Data are expressed as the percentage relative light units (RLU) relative to that observed with vehicle. Error bars, s.e.m. from triplicate samples.
as §1, §2
(In general: In ATP-based viability assays light output follows the ATP content of the culture.)

The test system of experiment [4] is GNAQ^Q209L-expressing melan-a cells. Nature of the experiment: TPA-independent cell growth, CellTiter-glo 2.0. Format: cell-based, mouse. As to conditions: 5 days. The protocol: as §3, §1, §2
A further experiment deals with Gq-mutant Mel202 cells. The experiment in a line: Colony formation assay. Format: cell-based, human. As to conditions: 1000 cells per well, until colonies visible in vehicle plates. How it is done:
(§4) To evaluate the effect of YM-254890 and trametinib in vitro, colony formation assays were performed. 1000 cells per well of the following cell lines were plated: (1) BRAF-mutant A375 cutaneous melanoma cells, (2) Gq-mutant Mel202 cells, and (3) Gq-mutant OMIM1.3 uveal melanoma cells. The cells were then treated with a negative vehicle control, YM-254890, trametinib, or both. Cells were allowed to grow until visible colonies formed in the vehicle-treated plates.

Experiment [5] concerns BRAF-mutant A375 cutaneous melanoma cells. Nature of the experiment: Colony formation assay. As to conditions: 1000 cells per well, until colonies visible in vehicle plates. It is filed as cell-based, human. How it is done:
as §4

In experiment [6] the test system is Gq-mutant OMIM1.3 uveal melanoma cells. Nature of the experiment: Colony formation assay. It is filed as cell-based, human. As to conditions: 1000 cells per well, until colonies visible in vehicle plates. How it is done:
as §4

Where two headings read alike, the source gives them in different places.

Turning to YM-254890, the results for the “inhibition of aberrant Gαq signaling downstream of Gαq^Q209L” value on Gαq^Q209L and at Gαq^Q209L (listed as YM) were “ineffective” and “unable to inhibit”, respectively. Also, the IC50 in the experiment with OMM1.3 cells, with Mel202 cells and with Mel270 cells was ~100 nM in each case. The “sensitivity of proliferation to YM” value (in the experiment with A549 cells (KRAS^G12S); in the experiment with Mel285 cells; in experiment [1]; in the experiment with Mel290 cells; in experiment [2]) was “resistant” throughout. The “YM-mediated growth inhibition in the presence of TPA” value in [3] (with TPA) and in [4] (with TPA) was “rescued” each time. Moreover, the “sensitivity of TPA-independent cell growth to YM” value in experiment [3] (without TPA) was “sub-nanomolar sensitivity”; in [4] (without TPA) it was “modestly less sensitive”. The colony formation result with Gq-mutant Mel202 cells was “moderate sensitivity”; in [5], “resistant”; in [6] it was “moderate sensitivity”.
